Laboratory results taken from US20230181521A1, “IS[…] ANALOGS OF 5,6-METHYLENEDIOXY-2-AMINOINDANE (MDAI)” (Terran Biosciences, Inc., priority 2021, published 2023).
Where a name gives a salt, the structure may show the parent alone.

How the values were obtained:
[1] = Metabolic stability in human liver microsomes; assay type: in vitro ADME; conditions: for half-life at 0.25 μM: pH 7.4; for microsomal CLint at 0.25 μM: pH 7.4, read-out: CLint (μL/min/mg protein); for in vitro clearance compared with MDAI HCl salt (reference compound): tested as racemic mixtures
Protocol: Microsomal Assay: Human liver microsomes (20 mg/mL) were obtained. β-nicotinamide adenine dinucleotide phosphate, reduced form (NADPH), magnesium chloride (MgCl2), and dimethyl sulfoxide (DMSO) are purchased from Sigma-Aldrich.
Determination of Metabolic Stability: 7.5 mM stock solutions of test compounds of the above structural formula (e.g., of an embodiment or aspect of embodiment thereof described herein), or pharmaceutically acceptable salt thereof, are prepared in DMSO. […] The diluted microsomes are added to wells of a 96-well deep-well polypropylene plate in triplicate. […] Reactions are initiated by addition of pre-warmed NADPH solution. The final reaction volume is 0.5 mL and contains 4.0 mg/mL human liver microsomes, 0.25 μM test compound, and 2 mM NADPH in 0.1 M potassium phosphate buffer, pH 7.4, and 3 mM MgCl2. The reaction mixtures are incubated at 37° C., and […] aliquots are removed at 0, 5, 10, 20, and 30 minutes and added to shallow-well 96-well plates which contain […] of ice-cold ACN (acetonitrile) with internal standard to stop the reactions. The plates are stored at 4° C. for 20 minutes after which […] of water is added to the wells of the plate before centrifugation to pellet precipitated proteins. Supernatants are transferred to another 96-well plate and analyzed for amounts of parent remaining by LC-MS/MS using an Applied Bio-systems API 4000 mass spectrometer. The same procedure is followed for the non-labeled, such as the non-deuterated counterpart of the compound and the positive control, 7-ethoxycoumarin (1 μM). Testing is done in triplicate.
Data analysis: The in vitro T1/2s for test compounds are calculated from the slopes of the linear regression of % parent remaining (In) vs incubation time relationship.
k=−[slope of linear regression of % parent remaining (In) vs incubation time] The apparent intrinsic clearance is calculated using the following equation: […]
Data analysis is performed using Microsoft Excel Software.

Male Sprague-Dawley rats = assay: Rat elevated zero maze test (model of anxiety); assay type: in vivo
From the text: The rat zero-maze model is a refined alternative to the plus-maze, the most widely used animal model of anxiety, and consists of an elevated annular platform, divided equally into four quadrants. Two opposite quadrants are enclosed by Perspex walls on both the inner and the outer edges of the platform, while the remaining two opposite quadrants are open being enclosed only by a Perspex “lip”. Animals will show a preference for the closed areas, and avoidance of the open sections is assumed to stem from a rodent's natural aversion to open, exposed spaces. The primary index of anxiety, which reflect changes in open arm preference, is the percentage of time spent on the open areas. A reduction in the amount of activity on the open areas is considered to reflect an increase in anxiety while an increase in time in the open arms is indicative of an anxiolytic effect. Other, ethologically-based behaviors are also assessed as indices of anxiety including total open arm entries, total line crossings, and the frequency of exploratory head dipping over the edge of the platform (HDIPS). • Shepherd, J K; Grewel, SS; Fletcher, A; Bill, DJ; Dourish, C T (1994) Behavioural and pharmacological validation of the elevated “zero-maze” as an animal model of anxiety. Psychopharmacol., 116:56-64.
Male Sprague-Dawley 200-250 g (Envigo UK) rats were used. Animals were group-housed (5 per cage; cage size: 40×40×20 cm) in a temperature-controlled environment (22±2° C.), under a 12 h light-dark cycle (lights on: 08:00 hours) for one week prior to testing. Food and water were freely available. Number of animals per group=5. Animals were moved into the experimental room 16-24 hours before testing.
The elevated 0-maze comprises a black Perspex annular platform (105 cm diameter, 10 cm width) elevated to 65 cm above ground level, divided equally into four quadrants. Two opposite quadrants are enclosed by clear red Perspex walls (27 cm high) on both the inner and outer edges of the platform, while the remaining two opposite quadrants are surrounded only by a Perspex “lip” (1 cm high) which serves as a tactile guide to animals on these open areas.
Subjects were weighed and tail marked before being injected. After a specified pre-treatment time, subjects were placed in a closed quadrant and a 5-min test period were recorded on videotape for subsequent analysis. The maze was cleaned with 5% methanol/water solution and dried thoroughly between test sessions. Behavioural measures comprise percentage time spent on the open areas (% TO). Animals are scored as being in the open area when all four paws were in an open quadrant and in the closed area only when all four paws have passed over the open-closed divide. All testing were carried out between 9.00 and 16.00 hours.
IP: MDAI (HCl salt with 82.94% free base content) was formulated in Vehicle 1 (Saline) for injection to concentrations of […] to provide doses of 0.15, 0.31, 0.625, 1.25 and 2.5 mg/kg when administered ip in 5 mL/kg dosing volumes.
Chlordiazepoxide was formulated in Vehicle 1 (saline) to a concentration of 1.2 mg/mL to provide a dose of 6 mg/kg when administered ip in 5 mL/kg dosing volumes.
35 male Sprague-Dawley rats in treatment groups of 2 or 5, was intraperitoneally dosed with either Vehicle 1 (saline) or MDAI at 1 of 5 dose levels (0.15, 0.31, 0.625, 1.25 and 2.5) or chlordiazepoxide (6 mg/kg) in 5 mL/kg injection volumes. Thirty min later at T=0, rats were individually placed in a closed arm of the zero-maze and behavior assessed by a “blind” observer using remote video monitoring over the subsequent 5 min. The animal was then removed and the maze carefully wiped with 5% methanol/water solution before the next test was begun. Three rats from the vehicle group, 3 rats from the 2.5 mg/kg MDAI group, and 3 rats from the CDP group were tested on a separate day from the other rats.
Data was analysed with Statistica software (Statsoft USA version 10.0). […]

[2] = Double-blind, randomized, placebo-controlled clinical trial of MDAI-assisted psychotherapy in PTSD; assay type: in vivo
Protocol: A multicenter, randomized, double-blind, placebo-controlled trial is conducted to assess the efficacy and safety of MDAI-assisted psychotherapy versus psychotherapy with placebo control in participants diagnosed with at least moderate post-traumatic stress disorder (PTSD).
This multicenter, randomized, double-blind, placebo-controlled trial is conducted at various sites in the United States with IRB approval from each study site. A flexible dose of MDAI hydrochloride salt or placebo, followed by a supplemental half-dose unless contraindicated by patient's previous response or medical history, is also administered during the Treatment Period with psychotherapy in at least 3 blinded monthly Experimental Sessions. The Supplemental Dose extends the duration of drug effects on the participants during an Experimental Session. An optional Risk Evaluation and Mitigation Strategy (REMS) Protocol may be implemented for MDAI and placebo-groups. The Treatment Period lasts for approximately 12 weeks. During the Treatment Period, each Experimental Session is followed by three Intervening Sessions of non-drug psychotherapy. Each Experimental Session involves an overnight stay. The Primary Outcome measure, the change in Clinician Administered PTSD Scale for DSM-5 (CAPS-5), is determined by a blinded Independent Rater (IR) pool multiple times throughout the study. The study consists of separate periods for each participant. Initially, prospective participants undergo a Screening Period involving an initial eligibility assessment, a medical history intake, informed consent, and enrollment of eligible participants. Next, a Preparation Period is undertaken for enrolled participants involving medication tapering and clinical baseline assessments to confirm each participant meets enrollment criteria. As part of the Preparation Period, a detailed assessment of co-morbidities to PTSD is recorded. Participants may remain on prescribed courses of selective serotonin reuptake inhibitor (SSRI) or serotonin and norepinephrine reuptake inhibitor (SNRI) treatment. Dosages and/or frequency of administration of a prescribed SSRI or SNRI may be adjusted to fit within study parameters. Participants may be required to taper a prescribed course of medication in order to maintain eligibility within the study. The Treatment Period consists of three monthly Experimental Sessions and associated Intervening Sessions of integrative behavioral psychotherapy. The Treatment Period lasts approximately 12 weeks. Following the Treatment Period is a Follow-up Period and Study Conclusion. During the Follow-up Period and Study Conclusion, participants complete 4 weeks with no study visits, followed by a Study Conclusion visit.
This study compares the effects of three blinded Experimental Sessions of psychotherapy in combination with flexible doses of MDAI or placebo administered as described below. Non-drug preparatory and intervening psychotherapy sessions are also included. Patient's weight is determined for dosage calculation. Initial dose is 100 mg unless this will result in a dosage of less than 1.5 mg/kg of patient weight. Initial dose thereby adjusted upward in 50 mg increments to deliver the lowest dose possible of at least 1.5 mg/kg of patient weight. Initial dose for Experimental Session 2 and 3 is cumulative dose calculated by adding the initial dose plus REMS protocol dose used the previous Experimental Session for each patient.
Randomization occurs prior to the initiation of Experimental Session 1. Each participant is provided the next randomized number in a sequence by a blinded study monitor. Participants are then randomized, according to a computer-generated randomization schedule, […] to MDAI or placebo. The randomization schedule is prepared and implemented by an independent statistician. Participants, clinicians, and study teams are blinded to treatment allocation. MDAI treatment groups may be subjected to anxiogenic effects due to underdosing of participants. […]

[3] = cited from earlier work
[4] = Progress in Neuro-Psychopharmacology & Biological Psychiatry 69, 2016, 49-59; cited from earlier work
[5] = 6 mg/kg ip, 30 min before test, vs vehicle
[6] = at Study Conclusion, vs placebo-treated controls

## [2H]C1(N)Cc2cc3c(cc2C1([2H])[2H])OCO3 (racemic) [Compound 3, 6,7,7-Trideuterio-5H-cyclopenta[f][1,3]benzodioxol-6-amine hydrochloride]
[1]
  half-life at 0.25 μM: 7.42 h
  microsomal CLint at 0.25 μM: 3.12 µL/min/mg
  in vitro clearance compared with MDAI HCl salt (reference compound): significantly lower

## [2H]C1([2H])Oc2cc3c(cc2O1)C([2H])([2H])C([2H])(N)C3 (racemic) [Compound 4, 2,2,6,7,7-Pentadeuterio-5H-cyclopenta[f][1,3]benzodioxol-6-amine hydrochloride]
[1]
  half-life at 0.25 μM: 7.97 h
  microsomal CLint at 0.25 μM: 2.9 µL/min/mg
  in vitro clearance compared with MDAI HCl salt (reference compound): significantly lower

## CNC1=Nc2ccc(Cl)cc2C(c2ccccc2)=[N+]([O-])C1 [CDP, Chlordiazepoxide]
Male Sprague-Dawley rats; [5]
  frequency of HDIPS: trend towards increased
  percentage of time in the open arms (% TO): significant increase
  total line crossings: trend towards increased
  total open arm entries: trend towards increased

## [2H]C1([2H])Oc2cc3c(cc2O1)CC(N)C3 [Compound 1, 2,2-Dideuterio-6,7-dihydro-5H-cyclopenta[f][1,3]benzodioxol-6-amine Hydrochloride]
[1]
  half-life and intrinsic clearance compared to MDAI HCl (reference compound): exhibit differences
  half-life at 0.25 μM: 3.27 h
  microsomal CLint at 0.25 μM: 7.09 µL/min/mg

## [2H]C1([2H])Oc2cc3c(cc2O1)C([2H])([2H])C([2H])(N)C3([2H])[2H] [Compound 2, 2,2,5,5,6,7,7-Heptadeuteriocyclopenta[f][1,3]benzodioxol-6-amine Hydrochloride]
[1]
  half-life and intrinsic clearance compared to MDAI HCl (reference compound): exhibit differences
  half-life at 0.25 μM: 3.83 h
  microsomal CLint at 0.25 μM: 6.04 µL/min/mg

## [2H]C1([2H])c2cc3c(cc2C([2H])([2H])C1([2H])N)OCO3 [Compound 5, 5,5,6,7,7-Pentadeuteriocyclopenta[f][1,3]benzodioxol-6-amine hydrochloride]
[1]
  half-life at 0.25 μM: 3.42 h
  microsomal CLint at 0.25 μM: 6.78 µL/min/mg

## NC1Cc2cc3c(cc2C1)OCO3 [MDAI, 5,6-Methylenedioxy-2-aminoindane]
[1]
  half-life at 0.25 μM: 3.42 h
  microsomal CLint at 0.25 μM: 6.78 µL/min/mg
Male Sprague-Dawley rats; 0.625 mg/kg ip, 30 min before test, vs vehicle or any other dose (FIG. 1)
  percentage of time in the open arms (% TO): numerical increase
Male Sprague-Dawley rats; doses too low or too high (0.15, 0.31, 1.25, 2.5 mg/kg ip)
  percentage of time in the open arms (% TO): opposite effect
Male Sprague-Dawley rats; higher and lower doses (0.15, 0.31, 1.25, 2.5 mg/kg ip), FIG. 2
  total open arm entries: trended towards an anxiogenic effect
Male Sprague-Dawley rats; middle dose (0.625 mg/kg ip), FIG. 2
  total open arm entries: increase vs placebo that trended towards significance
[2]; Intervening Session 1C, 2C, 3C and Study Conclusion
  CAPS-5 assessments compared to placebo-treated controls: Significant improvements
[2]; PTSD participants, at Study Conclusion
  CAPS-5 assessment compared to the placebo group: significant mean reduction
[2]; at Study Conclusion
  lessening daytime sleepiness as measured by ESS: significant improvement
[2]; [6]
  adverse anxiogenic incidents: without a significant increase
  clinician-rated functional impairment score as measured by SDS: significant improvement
  depression as measured by HAM-D: significant improvement
[3]
  Oral MDAI dose, drug activity level Threshold: 40 mg
  Oral MDAI dose, drug activity level Very Strong: ≥300 mg
[4]
  toxicity reported associated with MDAI intoxication: serotonin syndrome

## COc1ccc2c(c1)[C@]13CCCC[C@@H]1[C@H](C2)N(C)CC3 [dextromethorphan]
[1]
  half-life at 0.25 μM: 0.433 h
  microsomal CLint at 0.25 μM: 53.5 µL/min/mg
